{
  "source": "patent US7067586B2",
  "about": "“Methods of making ABA-type block copolymers having a random block of hydrophobic and hydrophilic monomers” (Symyx Technologies, Inc., priority 2000, dated 2006)",
  "origin": "cited, not measured here",
  "conditions": "octanol-water partition coefficient of the monomer, approximate values from web-site estimation program or Hansch et al.",
  "note": "Like-named read-outs stand apart in the source and are kept apart here.",
  "data": [
    {"smiles": "C=CC(=O)OCCO", "note": "[2-hydroxyethylacrylate]", "values": [
      {"measurement": "log P", "value": "about −0.21"}
    ]},
    {"smiles": "C=CC(=O)OCCOC", "note": "[2-methoxyethylacrylate]", "values": [
      {"measurement": "log P", "value": "about 0.45"}
    ]},
    {"smiles": "C=C(C)C(=O)OC", "note": "[methyl methacrylate]", "values": [
      {"measurement": "log P", "value": "~1.38"}
    ]},
    {"smiles": "C=C(C)C(=O)OCCO", "note": "[2-hydroxyethylmethacrylate]", "values": [
      {"measurement": "log P", "value": "about 0.47"}
    ]},
    {"smiles": "C=C(C)C(=O)OC(C)(C)C", "note": "[t-butyl methacrylate]", "values": [
      {"measurement": "log P", "value": "~2.54"}
    ]},
    {"smiles": "C=Cc1ccccc1", "note": "[styrene]", "values": [
      {"measurement": "log P", "value": "about 2.95"}
    ]},
    {"smiles": "C=CCO", "note": "[allyl alcohol]", "values": [
      {"measurement": "log P", "value": "~0.17"}
    ]},
    {"smiles": "C=C(C)C(=O)OCCCC", "note": "[n-butyl methacrylate]", "values": [
      {"measurement": "log P", "value": "~2.36"}
    ]},
    {"smiles": "C=C(CC(=O)O)C(=O)O", "note": "[itaconic acid]", "values": [
      {"measurement": "log P", "value": "~−0.34"}
    ]},
    {"smiles": "C=CC(=O)OC(C)(C)C", "note": "[tert-butylacrylate]", "values": [
      {"measurement": "log P", "value": "about 2.09"},
      {"measurement": "log P", "setting": "listed as t-butyl acrylate", "value": "~2.09"}
    ]},
    {"smiles": "C=CC(=O)NC(C)(C)C", "note": "[N-t-butyl acrylamide]", "values": [
      {"measurement": "log P", "value": "~1.02"}
    ]},
    {"smiles": "C=C(C)C(N)=O", "note": "[methacrylamide]", "values": [
      {"measurement": "log P", "value": "~−0.26"}
    ]},
    {"smiles": "O=C(O)/C=C\\C(=O)O", "note": "[maleic acid]", "values": [
      {"measurement": "log P", "value": "~−0.48"}
    ]},
    {"smiles": "C=C(C)C(=O)OCCN(C)C", "note": "[dimethyl aminoethyl methacrylate]", "values": [
      {"measurement": "log P", "value": "~0.97"}
    ]},
    {"smiles": "C=C(C)C(=O)OCC(C)C", "note": "[isobutyl methacrylate]", "values": [
      {"measurement": "log P", "value": "~2.66"}
    ]},
    {"smiles": "C=C(C)C(=O)O", "note": "[methacrylic acid]", "values": [
      {"measurement": "log P", "value": "~0.93"}
    ]}
  ]
}
